Test results published in paper PMC10824666 (Nature Cancer, 2023).
Like-named read-outs stand apart in the source and are kept apart here.

Tests used:
[1] = target: T1, FLT3 (Homo sapiens, UniProt P36888); assay: biochemical; parameters: Eurofins DiscoverX kinase panel, competitive binding assay at 1 uM, percent of DMSO control; settings: competitive binding, percent of DMSO control
T1 sequence (P36888 1-993): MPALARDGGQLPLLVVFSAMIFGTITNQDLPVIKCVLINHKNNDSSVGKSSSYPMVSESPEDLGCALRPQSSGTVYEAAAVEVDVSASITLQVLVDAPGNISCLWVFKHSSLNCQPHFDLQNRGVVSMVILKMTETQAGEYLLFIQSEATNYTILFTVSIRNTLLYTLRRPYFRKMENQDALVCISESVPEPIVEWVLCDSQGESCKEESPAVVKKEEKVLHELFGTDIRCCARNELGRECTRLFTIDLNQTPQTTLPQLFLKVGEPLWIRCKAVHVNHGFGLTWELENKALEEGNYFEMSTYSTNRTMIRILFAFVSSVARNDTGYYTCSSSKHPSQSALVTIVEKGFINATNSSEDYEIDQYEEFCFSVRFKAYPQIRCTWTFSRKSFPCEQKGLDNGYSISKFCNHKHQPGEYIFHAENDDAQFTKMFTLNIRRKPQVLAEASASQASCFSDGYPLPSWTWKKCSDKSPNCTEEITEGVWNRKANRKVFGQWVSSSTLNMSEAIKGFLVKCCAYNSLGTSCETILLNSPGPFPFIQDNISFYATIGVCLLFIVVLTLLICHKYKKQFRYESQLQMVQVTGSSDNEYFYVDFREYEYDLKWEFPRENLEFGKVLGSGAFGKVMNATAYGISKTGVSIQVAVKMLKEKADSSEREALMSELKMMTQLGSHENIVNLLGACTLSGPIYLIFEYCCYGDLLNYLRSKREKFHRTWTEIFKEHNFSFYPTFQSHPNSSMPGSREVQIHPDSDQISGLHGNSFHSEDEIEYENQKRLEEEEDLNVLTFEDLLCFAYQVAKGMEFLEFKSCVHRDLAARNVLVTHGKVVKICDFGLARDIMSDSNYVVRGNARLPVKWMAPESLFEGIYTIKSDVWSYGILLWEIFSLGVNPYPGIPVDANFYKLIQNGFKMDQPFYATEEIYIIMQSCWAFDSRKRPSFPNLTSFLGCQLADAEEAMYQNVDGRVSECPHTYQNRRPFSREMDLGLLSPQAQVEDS
In short: (§1)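 Competitive binding assay across a 96-kinase panel with KIF18A compounds at 1 µM; values given as percentage of control (POC), single experiment.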

[2] = target: Stk33 (Homo sapiens, UniProt Q9BYT3); assay: biochemical; parameters: Eurofins DiscoverX kinase panel, competitive binding assay at 1 uM, percent of DMSO control; settings: competitive binding, percent of DMSO control
Chain of Stk33 (Q9BYT3 whole entry): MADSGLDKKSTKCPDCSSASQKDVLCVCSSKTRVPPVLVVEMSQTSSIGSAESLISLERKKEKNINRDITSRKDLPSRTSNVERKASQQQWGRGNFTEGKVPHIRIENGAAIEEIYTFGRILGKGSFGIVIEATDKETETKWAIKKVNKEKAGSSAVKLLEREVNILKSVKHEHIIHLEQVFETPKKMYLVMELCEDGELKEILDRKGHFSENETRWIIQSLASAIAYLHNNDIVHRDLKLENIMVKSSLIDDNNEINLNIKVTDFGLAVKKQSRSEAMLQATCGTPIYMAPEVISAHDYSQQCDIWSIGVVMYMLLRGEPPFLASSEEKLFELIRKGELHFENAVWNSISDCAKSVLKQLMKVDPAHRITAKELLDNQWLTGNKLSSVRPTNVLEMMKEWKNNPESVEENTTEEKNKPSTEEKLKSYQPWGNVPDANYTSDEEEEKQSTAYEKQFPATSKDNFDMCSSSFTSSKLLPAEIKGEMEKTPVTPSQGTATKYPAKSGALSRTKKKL
In short: as §1

[3] = read-out: Kinome Profiling performed by Eurofins DiscoverX / AM-1882, 1.0 µM / POC
[4] = read-out: Kinome Profiling performed by Eurofins DiscoverX / AM-0277, 1.0 µM / POC
[5] = read-out: Kinome Profiling performed by Eurofins DiscoverX / AM-5308, 1.0 µM / POC

CC(C)(C)NS(=O)(=O)c1cccc(NC(=O)c2ccc(S(=O)(=O)NC(C)(C)C)cc2N2CCC3(CC2)CC3)c1 [AM-1882]
remaining activity at 1 µM [1, 3]: 88%
remaining activity at 1 µM [2, 3]: 98%

CC(C)(CO)Nc1ccc(C(=O)Nc2cccc(S(=O)(=O)C3CCCC3)c2)c(N2CCC3(CC2)CC3)n1 [AM-0277]
remaining activity at 1 µM [1, 4]: 94%
remaining activity at 1 µM [2, 4]: 86%

C[C@@H]1CN(c2cccc(NC(=O)c3ccc(NS(=O)(=O)CCO)cc3N3CCC4(CC3)CC4)n2)CCO1 [AM-5308]
remaining activity at 1 µM [1, 5]: 90.5%
remaining activity at 1 µM [2, 5]: 89%
